Holding throughout (format): cell-based, Saccharomyces cerevisiae
Assay [1] has as its system RE700A e PPDR5-HXT7 (ET[PDR]). Put plainly: Growth inhibition of ET[PDR] by 2-DG. As to conditions: 20 h 28° C., maltose, in percent of growth of RE700A. The protocol:
(§1) (A) RE700A, ECFP and ET[PDR] were incubated 20 h at 28° C. with maltose (2% (w/v)) as the sole carbon source in the presence of the indicated 2-DG concentrations. The optical density was measured at 600 nm every 15 minutes and the integral under the growth curve was calculated. Inhibition of growth of ECFP and ET[PDR] is shown in percent of growth of RE700A. Growth of ECFP was inhibited by 39% at 0.005% (w/v) 2-DG, by 78% at 0.01% (w/v) 2-DG, by 91% at 0.03% (w/v) 2-DG and by 93% at 0.05% (w/v) 2-DG. Growth of ET[PDR] was inhibited by 52% at 0.005% (w/v) 2-DG, by 87% at 0.01% (w/v) 2-DG, by 94% at 0.03% (w/v) 2-DG and by 96% at 0.05% (w/v) 2-DG.
(§2) Strain growth: The growth of the strains in liquid medium was determined by measuring the optical density at 600 nm. To obtain growth curves, measurements were performed every 15 min. Alternatively, start and endpoint (after 12-16 h) measurements were carried out.

Assay [2] deals with RE700A i PPDR5-HXT7 (IT[PDR]). Put plainly: Growth inhibition of IT[PDR] by 2-DG. Particulars: 20 h 28° C., maltose; for Inhibition of growth: IT[PDR], in percent of growth of RE700A. The protocol: (B) RE700A, ICFP and IT[PDR] were incubated 20 h at 28° C. with maltose (2% (w/v)) as the sole carbon source and the indicated 2-DG concentrations. The optical density was measured at 600 nm every 15 minutes and the integral under the growth curve is calculated. Inhibition of growth of ICFP and IT[PDR] is shown in percent of growth of RE700A. Growth of ICFP was inhibited by 15% at 0.01% (w/v) 2-DG, by 74% at 0.03% (w/v) 2-DG, by 80% at 0.05% (w/v) 2-DG and by 83% at 0.1% (w/v) 2-DG. Growth of IT[PDR] was inhibited by 21% at 0.01% (w/v) 2-DG, by 79% at 0.03% (w/v) 2-DG, by 88% at 0.05% (w/v) 2-DG and by 96% in 0.1% (w/v) 2-DG.
(A) Growth inhibition of RE700A i PPDR5-HXT7 (IT[PDR]), RE700A Δpdr1 tok1::PPDR5-HXT7, RE700A Δpdr3 tok1::PPDR5-HXT7 and RE700A Δpdr1,pdr3 tok1::PPDR5-HXT7 at increasing 2-DG concentrations. RE700A i PPDR5-HXT7 (IT[PDR]), RE700A Δpdr1 tok1::PPDR5-HXT7, RE700A Δpdr3 tok1::PPDR5-HXT7 and RE700A Δpdr1,pdr3 tok1::PPDR5-HXT7 were incubated 20 h at 28° C. with Maltose (2% (w/v)) as the sole carbon source and 2-DG concentrations as indicated. The optical density was measured at 600 nm every 15 minutes and the integral under the growth curve was calculated. Inhibition of growth caused by 2-DG is shown in percent. The growth of the strain RE700A tok1::PPDR5-HXT7 (IT[PDR]) was inhibited by 50% at 0.02% (w/v) 2-DG. Growth of the strains RE700A Δpdr1 tok1::PPDR5-HXT7 and RE700A Δpdr3 tok1::PPDR5-HXT7 was inhibited by 50% at 0.026% (w/v) 2-DG.
as §2

The subject of assay [3] is RE700A e PCUP-HXT7 (ECFP). Briefly: Growth inhibition of ECFP by 2-DG. Particulars: 20 h 28° C., maltose, in percent of growth of RE700A. On the procedure:
as §1, §2

In assay [4] the test system is RE700A e PCDR2-HXT7 (ET[CDR2]). Put plainly: Growth inhibition of ET[CDR2] by 2-DG. As to conditions: liquid media, 20 h 28° C., compared to growth in the absence of 2-DG. On the procedure: FIG. 6: Growth inhibition of RE700A, ET[CDR1] and ET[CDR2] in the presence of increasing 2-DG concentrations after 20 h incubation at 28° C. for in liquid medium. RE700A, ET[CDR1] and ET[CDR2] were incubated 20 h at 28° C. with maltose (2% (w/v)) as the sole carbon source in the presence of increasing 2-DG concentrations in liquid medium. The optical density was measured at 600 nm semi-continuously every 15 minutes and the integral under the growth curve was calculated. Inhibition of growth is shown in percent compared to growth in the absence of 2-DG. Growth of ET[CDR1] was inhibited by 92% at a 2-DG concentration in liquid media of 0.05% (w/v), by 94% at a 2-DG concentration in liquid media of 0.075% (w/v), by 93% at a 2-DG concentration in liquid media of 0.1% (w/v) and by 95% at a 2-DG concentration of 0.2% (w/v). Growth of ET[CDR2] was inhibited by 50% at a 2-DG concentration in liquid media of 0.05% (w/v), by 70% at a 2-DG concentration in liquid media of 0.075% (w/v), by 70% at a 2-DG concentration in liquid media of 0.1% (w/v) and by 84% at a 2-DG concentration of 0.2% (w/v).
(2) Episomal screening system for inhibitors of PCDR2: S. cerevisiae strain RE700A was transformed with plasmids pY-PCDR2-HXT7 and pY-PCDR2-GFP yielding strains ET[CDR2] and CQ[CDR2] (for details see construction of strains and plasmids, for the complete genotype refer to Table 1). The inhibition of growth of ET[CDR2] by 2-DG was tested. The growth of this strain was inhibited to more than 80% at a 2-DG concentration of 0.2% (w/v) (FIG. 6). To screen for inhibitors of the PCDR2, the test strain ET[CDR2] can be incubated in selective YNB medium with 2% (w/v) maltose as the carbon source and 0.2% (w/v) 2-DG. Under these non-permissive conditions the growth of the test strain ET[CDR2] was inhibited when PCDR2 was active (FIG. 6).

Each structure is given as a SMILES string. Where “and” joins values, the source holds several entries; their conditions need not be identical. Equal entries are not always repeated.

Broadly, the Inhibition of growth is the share of the control response that was lost under treatment. For `O=CC[C@@H](O)[C@H](O)[C@H](O)CO` [2-DG, 2-deoxy-glucose], the Inhibition of growth in assay [1] (0.005% (w/v) 2-DG) amounted to 52%; in assay [1] (0.01% (w/v) 2-DG), 87%; in assay [1] (0.03% (w/v) 2-DG), 94%; in assay [1] (0.05% (w/v) 2-DG), 96%; in assay [2] (0.01% (w/v) 2-DG), 21%; in assay [2] (0.03% (w/v) 2-DG), 79%. The Inhibition of growth in assay [2] (0.05% (w/v) 2-DG) worked out at 88%; in assay [2] (0.1% (w/v) 2-DG) it was 96%; in assay [3] (0.005% (w/v) 2-DG), 39%; in assay [3] (0.01% (w/v) 2-DG), 78%; in assay [3] (0.03% (w/v) 2-DG) it was 91%; in assay [3] (0.05% (w/v) 2-DG), 93%. Further, the Inhibition of growth in assay [4] (0.05% (w/v) 2-DG) was determined as 50%; in assay [4] (0.075% (w/v) 2-DG), 70%; in assay [4] (0.1% (w/v) 2-DG) it was 70%. In addition, the “2-DG concentration for 50% growth inhibition” value in assay [2] (RE700A tok1::PPDR5-HXT7 (IT[PDR]), liquid media) was 0.021 % (w/v) and 0.02 % (w/v).

For the origin of these results see patent US9121026B2 (priority 2004, dated 2015).
